Test results as given in publication PMC11651181, “Discovery of 6α-Thiazolylcarboxamidonaltrexamine Derivative (NTZ) as a Potent and Central Nervous System Penetrant Opioid Receptor Modulator with Drug-like Properties for Potential Treatment of Opioid Use Disorder” (ACS Pharmacology & Translational Science, 2024).
Where a name gives a salt, the structure may show the parent alone. Read-outs that look alike come from different tables or passages of the source.

Tests used:
[1] = Caco-2 permeability studies; assay type: in vitro ADME; conditions: human, 1 h incubation
Protocol: Caco-2 cells (HTB-37) were cultured in T75 flasks using DMEM supplemented with 10% FBS, 1% glutamine, penicillin, and streptomycin at 37 °C and 5% CO2. Cells were passaged at 80–90% confluency and seeded into Millipore 96-well plates (25,000 cells/well) to form monolayers, with media changed every 2–3 days for 21 days until 100% confluency. Permeability studies involved adding 10 μM compound 6 to the apical (A) or basolateral (B) side and measuring permeation across the monolayer. Lucifer yellow dye (100 μM) was used in the A-side buffer as a control. Incubation lasted 1 h, and permeability was assessed using ranitidine/colchicine (low permeability) and labetalol/propranolol (high permeability) as controls. Samples were collected, quenched with methanol, centrifuged, and analyzed by HPLC-MS/MS to determine peak area ratios.
Data was expressed as [drawing 1] here VR is the volume of the receiver chamber. CR,end is the concentration of the test compound in the receiver chamber at the final time point, Δt denotes the incubation time, and A is the surface area of the cell monolayer. CD,mid is the average midpoint concentration of the test compound on the donor side, calculated as the mean of the donor concentrations at 0 min and at the end time point. […] Test compound concentrations were determined based on their peak areas.

κ opioid receptor (KOR) = molecular target: T1, κ opioid receptor (KOR) (Mus musculus, UniProt P33534); experiment: Competitive radioligand binding assay, KOR
T1 construct: expressed in transfected cells; host or cells: CHO (mKOR-CHO), membrane preparation
Protocol: The competition binding assay was performed using monoclonal mouse opioid receptors expressed in CHO cell lines (monoclonal human δ opioid receptor was used for the DOR assay).
The bound radioligand was separated using a Brandel harvester. Specific binding to the MOR, KOR, and DOR was calculated by subtracting the binding observed in the presence of 5 μM naltrexone, U50488, and SNC80, respectively, from the binding in their absence. Relative affinity values (IC50) were determined by fitting displacement binding inhibition data to a nonlinear regression model using GraphPad Prism 8.0 (GraphPad Software, San Diego, CA). The % inhibition was calculated using the formula: % inhibition = 100% - [(binding with the tested compound - nonspecific binding)/specific binding] × 100%. The IC50 values were converted to Ki values using the Cheng-Prusoff equation: Ki = IC50/ [1 + ([L*]/KD)], where [L*] is the concentration of the radioligand and KD is the KD of the radioligand.[68]

Swiss Webster mice = experiment: Warm-water tail immersion assay, antagonism of morphine-induced antinociception
[2] = In vitro metabolic stability in human liver microsomes; assay type: in vitro ADME; conditions: 1.0E-07 M
Protocol: (§1) The ADMET assessment including the hERG inhibitory activity, plasma protein binding, in vitro metabolic stability profile, CYP inhibitory effect and mutagenic evaluation were conducted by Eurofins Panlabs, Inc.[21],[61],[69]−[71]

[3] = In vivo BBB-penetration studies (LC-MS/MS of brain and plasma); parameters: species or system mouse; conditions: 10 mg/kg s.c.; for Brain concentration / concentration at 5 min / concentration at 10 min / concentration at 30 min: n = 3, mean ± SD; for concentration at 5 min / concentration at 10 min / concentration at 30 min: subcutaneous
Protocol: Swiss Webster mice (three mice each time point) were administered compound 6 (10 mg/kg, s.c.) or vehicle. At 5-, 10-, and 30 min time points post administration, the mice were euthanized by decapitation, and blood and brain samples were collected. Blood samples were centrifuged at 15,000 g for 10 min at 4 °C to isolate plasma. Brains were washed twice with saline before harvesting and stored in saline until homogenization. Both brain and plasma samples were kept at −80 °C until further analysis.
Compound 6 was identified and quantified in mouse plasma and brain using a modified version of a previously established method, with naloxone-d5 as the internal standard.[20] In brief, compound 6 was extracted from both blood and brain using naloxone-d5 as the internal standard (ISTD) by a liquid/liquid extraction. Before extraction, brain tissue samples were homogenized at a ratio of one-part tissue to three-parts water. Seven-point calibration curves (10–1000 ng/mL or ng/g) were prepared for in plasma, and included drug free control, negative control (lacking internal standard, ISTD) for plasma and brain, and quality control samples in plasma and brain (30, 300, and 750 ng/mL or ng/g). […], used as the internal standard, was added at a concentration of 10 ng/mL to either 100 μL of blood or 400 μL for brain homogenate to each calibrator, control, or sample, excluding the negative control. To these samples 0.5 mL of saturated carbonate/bicarbonate buffer (1:1, pH 9.5) and 2.0 mL of chloroform: isopropanol (8:2) were added. The mixtures were vortexed, centrifuged and the top aqueous layer was removed. The organic layer was transferred to a clean test tube and evaporated to dryness under nitrogen. The residues were reconstituted in 80:20 methanol: water and transferred to autosampler vials for analysis. Chromatographic separation of compound 6 and naltrexone-d5 was performed using a Shimadzu Nexera X2 liquid chromatography system with a Zorbax XDB-C18 4.6 × 75 mm, 3.5-μm column (Agilent Technologies, Santa Clara, CA). The mobile phase consisted of water with 1 g/L ammonium formate and 0.1% formic acid (Phase A) and methanol (Phase B). The flow rate was maintained at 1 mL/min. The gradient started at 20% B, increased to 80% within 1 min, and was held for 1.5 min before returning to the initial conditions. Detection was carried out using a Sciex 6500 QTRAP system with an IonDrive Turbo V source for TurbolonSpray (Sciex, Ontario, Canada). The curtain gas flow rate set to 30 mL/min while the ion source gases 1 and 2 were set to 60 mL/min. The source temperature was maintained at 650 °C and the ionspray voltage was set at 5500 V. The declustering potential was […]. The following quantification and qualifying transition ions were monitored in positive multiple reaction monitoring (MRM) mode with collisions energies in parentheses: compound 6 455> 437 (26), 455 > 268 & (41); naloxone-d5 333> 212 (45), &333 > 315 (25). Retention times of compound 6 and naloxone-d5 were 1.81 and 1.69 min, respectively. The total run time was 4 min. Compound 6 concentration was determined by linear regression plot based on peak area ratios of the calibrators.

CYP2C9 = molecular target: T2, CYP2C9 (Homo sapiens, UniProt P11712); experiment: Cytochrome P450 inhibition assay, CYP2C9; assay type: in vitro ADME
T2 construct: Eurofins Panlabs, Inc. (contract laboratory)
Protocol: as §1

## O=C(N[C@H]1CC[C@@]2(O)[C@H]3Cc4ccc(O)c5c4[C@@]2(CCN3CC2CC2)[C@H]1O5)c1nccs1 [Compound 6, 17-Cyclopropylmethyl-3,14β-dihydroxy-4,5α-epoxy-6α-(2′-thiazolylcarboxamido)-morphinan hydrochloride]
[1]
  Papp A→B at 1 h, 10 μM: 13.1 ×10⁻⁶ cm/s
  Papp B→A at 1 h, 10 μM: 33.2 ×10⁻⁶ cm/s
κ opioid receptor (KOR)
  Ki: 1.3 ± 0.12 nM
κ opioid receptor (KOR); ratio of Ki values
  Selectivity κ/μ: 5
Swiss Webster mice; mice, s.c., given 5 min before morphine
  AD50 (95% CL) for counteracting morphine-induced antinociception: 0.043 (0.007–0.25) mg/kg
Swiss Webster mice; single dose of 10 mg/kg s.c. in the presence of morphine (10 mg/kg), n = 6
  Antagonism of morphine's antinociception, in words: significantly antagonized
[2]
  half-life at 100 nM: > 1 h
  microsomal CLint at 100 nM: < 38.5 µL/min/mg
[2]; 15 min
  % Compound Remaining, mean: 101%
[2]; 30 min
  % Compound Remaining, mean: 101%
[2]; 45 min
  % Compound Remaining, mean: 103%
[2]; 60 min
  % Compound Remaining, mean: 97%
[3]
  Decrease in the plasma levels over 30 min: 33%
[3]; 5 min
  Brain concentration: 0.187 ± 0.07 µg/g
[3]; 10 min
  Brain concentration: 0.235 ± 0.06 µg/g
[3]; 30 min
  Brain concentration: 0.264 ± 0.05 µg/g
[3]; Swiss Webster, mouse, brain and plasma, sc, 5 min, read-out: Brain-to-Plasma ratio
  Kp at 5 min: 0.102
[3]; Swiss Webster, mouse, brain and plasma, sc, 10 min, read-out: Brain-to-Plasma ratio
  Kp at 10 min: 0.173
[3]; Swiss Webster, mouse, brain and plasma, sc, 30 min, read-out: Brain-to-Plasma ratio
  Kp at 0.5 h: 0.217
[3]; Swiss Webster, mouse, brain, 5 min, read-out: Brain concentration
  concentration at 5 min: 187 ng/g
[3]; Swiss Webster, mouse, brain, 10 min, read-out: Brain concentration
  concentration at 10 min: 235 ng/g
[3]; Swiss Webster, mouse, brain, 30 min, read-out: Brain concentration
  concentration at 30 min: 264 ng/g
[3]; Swiss Webster, mouse, plasma, 5 min, read-out: Plasma concentration
  concentration at 5 min: 1820 ± 280 ng/mL
[3]; Swiss Webster, mouse, plasma, 10 min, read-out: Plasma concentration
  concentration at 10 min: 1360 ± 210 ng/mL
[3]; Swiss Webster, mouse, plasma, 30 min, read-out: Plasma concentration
  concentration at 30 min: 1220 ± 330 ng/mL
CYP2C9; 1.0E-05 M
  inhibition at 10 µM: 16.3%
CYP2C9; 1.0E-07 M
  inhibition at 100 nM: 0.6%
